From patent US20250121076A1, “POLYPEPTIDE DRUG CONJUGATE HAVING NOVEL STRUCTURE AND APPLICATION THEREOF” (MEDSHINE DISCOVERY INC., priority 2021, published 2025)
Counter-ions that a name gives are not always drawn. Like-named read-outs stand apart in the source and are kept apart here. Starred links: 1 amine or outer side, 2 acyl side, 3 side chain; linkers in the order of their positions; H or OH if unused. Positions of bridges follow the written chain, without caps; N, C: chain ends. Non-standard residues stand in square brackets, D forms with d. Residues, ends and D or L forms follow the SMILES beside them. Chains are numbered I, II in the order given. *: point of attachment. TATA = O=C(CC[*:1])N1CN(C(=O)CC[*:2])CN(C(=O)CC[*:3])C1; Dolaproine = CO[C@@H]([C@@H]1CCCN1)[C@@H](C)C(=O)O; Dil = CC[C@H](C)[C@H](NC)[C@@H](CC(=O)O)OC; X2 = O=C(CCCC(=O)[*:2])NCCC(=O)[*:1]; PABC = O=C(OCc1ccc(N[*:1])cc1)[*:2]; X1 = C[C@@H](N*)[C@@H](O)c1ccccc1; Hyp = O=C(O)[C@@H]1C[C@@H](O)CN1; hArg = N=C(N)NCCCC[C@H](N)C(=O)O; Cit = NC(=O)NCCC[C@H](N)C(=O)O; NMeV = CN[C@H](C(=O)O)C(C)C; hCys = N[C@@H](CCS)C(=O)O; Sar = CNCC(=O)O

Experiments:
Human EphA2 = target: T1, Human EphA2 (Homo sapiens, UniProt P29317); assay: Binding capacity test to EphA2 protein (SPR, Biacore 8K)
T1 construct: purchased Sino Biological 13926-H08HD
Procedure: To detect the affinity of the compound to be tested to the target protein EphA2 using the SPR method.
• Biacore 8K (GE Healthcare). • 96-well Plate (Cat #650101, greiner bio-one) • CM5 chip (Cat #BR-1005-30, GE Healthcare) • Amine Coupling Kit (Cat #BR-1000-50, GE Healthcare) EDC NHS 1 M ethanolamine. • 10 mM sodium acetate pH 4.5 (Cat #BR-1003-50, GE Healthcare) • DMSO (Cat #D4540, Sigma) • P20 (Cat #BR-1000-54, GE Healthcare). • PBS (Cat #BR-1006-72, GE Healthcare). • EphA2 (Cat #13926-H08HD, Sino Biological)
In this experiment, the amino coupling method was used. The target protein EphA2 was directly immobilized on the CM5 chip using Biacore 8K. The compound to be tested as an analyte was then diluted to a required concentration gradient with a buffer (10 mM PBS, pH 7.4, 137 mM NaCl, 2.7 mM KCl, 5% DMSO, and 0.05% P20) for multi-cycle kinetic detection, in which each cycle is formed by 180 seconds of sample injection and 180 seconds of dissociation, and then the next cycle was performed, to obtain kinetic analysis data on the affinity of the target protein EphA2 to the compound to be tested. The final data were subjected to Kinetics fitting analysis based on a 1:1 model using Biacore Insight Evaluation Software (V 2.0.15.12933).
1) Preparation of the buffer: 10 mM PBS, pH 7.4, 137 mM NaCl, 2.7 mM KCl, 5% DMSO, and 0.05% P20.
2) Activation of the CM5 chip: The CM5 chip was activated with 400 mM EDC and 100 mM NHS at a flow rate of 10 μL/min for 420 seconds.
3) Coupling of the target protein: The target protein was diluted to 10 μg/mL with 10 mM sodium acetate (pH 4.5) and coupled at a flow rate of 10 μL/min for 284 s. The 1 #, 2 #, and 3 #channels on the chip were used in the experiment, and the coupling results were 1639.9RU, 1747.8RU, and 1702.2RU, respectively.
4) Blocking of the CM5 chip: The CM5 chip was blocked with 1 M ethanolamine at a flow rate of 10 μL/min for 420 seconds.
5) Analyte concentration: The compound to be tested was diluted with the buffer. The compound to be tested was diluted from 100 nM to 0.78 nM in a 2-fold gradient.
6) Sample injection analysis: Each concentration of the working solution of the compound to be tested corresponded to one cycle, with a flow rate of 30 μL/min for binding for 180 seconds and dissociating for 180 seconds. The last cycle was a 5% DMSO solvent correction cycle. 7) All results were subjected to kinetics fitting analysis based on a 1:1 model.
The experimental data of five effective concentrations of the compounds of the present invention were selected for Kinetics fitting analysis based on a 1:1 model using Biacore Insight Evaluation Software (V 2.0.15.12933).

[1] = In vivo pharmacokinetic analysis in mice; set-up: species or system CD-1 mice; details: MMAE as potential metabolite in plasma after single IV 2 mg/kg acetate salt of PDC_8, CD-1 mice
Procedure: To test the pharmacokinetics of the compounds of the present invention in CD-1 mice
The pharmacokinetic characteristics of the compound after intravenous injection and oral administration were tested in CD-1 mice according to a standard protocol. The compound of the present invention was formulated into a clear solution using 50 mM acetate buffer (pH=5) in 10% sucrose as a vehicle. Two mice were given a single intravenous injection of 2 mg/kg of the compound to be tested. Whole blood was collected at time points of 0.083, 0.25, 0.5, 1, 2, 4, 8, and 24 hours after administration to get plasma. The concentration of the compound to be tested and the concentration of its potential metabolite MMAE were analyzed by the LC-MS/MS method, and the pharmacokinetic parameters, such as maximal concentration (Cmax), clearance (Cl), half-life (T1/2), […] (Vdss), and area under the concentration-time curve (AUC0-last), were calculated by Phoenix WinNonlin software.

[2] = Pharmacokinetic analysis in rat plasma (6.1, 2 mg/kg); type: in vivo, SD rats; details: MMAE as potential metabolite in plasma after single IV 2 mg/kg acetate salt of PDC_8, SD rats
Procedure: (§1) Experimental purpose: To test the pharmacokinetics of the compounds of the present invention in SD rats.
(§2) 6.1 The pharmacokinetic characteristics of the compound after intravenous injection and oral administration were tested in rats according to a standard protocol. The compound to be tested was formulated into a clear solution using 50 mM acetate buffer (pH=5) in 10% sucrose as a vehicle. Two SD rats were given a single intravenous injection of 2 mg/kg of the compound to be tested. Whole blood was collected at time points of 0.083, 0.25, 0.5, 1, 2, 4, 8, and 24 hours after administration to get plasma. The concentration of the compound to be tested and the concentration of its potential metabolite MMAE were analyzed by the LC-MS/MS method, and the pharmacokinetic parameters were calculated by Phoenix WinNonlin software.

[3] = Pharmacokinetic analysis in rat plasma at different doses (6.2); type: in vivo, SD rats
Procedure: as §1
as §2, with “6.2 The” for “6.1 The”, “vehicle. Three male” for “vehicle. Two”, “of 2.5 mg/kg, 3.75 mg/kg, or 5” for “of 2”, “1,” for “1, 2,”, “4,” for “4, 8,”, “were calculated.” for “were calculated by Phoenix WinNonlin software.”

[4] = Pharmacokinetic analysis in Cynomolgus macaque plasma; type: in vivo, Cynomolgus macaques; details: MMAE as potential metabolite in plasma after single IV 1 mg/kg acetate salt of PDC_8, Cynomolgus macaques
Procedure: To test the pharmacokinetics of the compounds of the present invention in Cynomolgus macaques.
as §2, with “The pharmacokinetic” for “6.1 The pharmacokinetic”, “tested in Cynomolgus macaques according to” for “tested in rats according to”, “The compound of the present invention was formulated” for “The compound to be tested was formulated”, “vehicle. Two Cynomolgus macaques were given” for “vehicle. Two SD rats were given”, “injection of 1 mg/kg of” for “injection of 2 mg/kg of”

[5] = MMAE as potential metabolite after single IV 2.5 mg/kg acetate salt of PDC_8, male SD rats
[6] = MMAE as potential metabolite after single IV 3.75 mg/kg acetate salt of PDC_8, male SD rats
[7] = MMAE as potential metabolite after single IV 5 mg/kg acetate salt of PDC_8, male SD rats

T1 sequence (P29317 24-534 limits assumed): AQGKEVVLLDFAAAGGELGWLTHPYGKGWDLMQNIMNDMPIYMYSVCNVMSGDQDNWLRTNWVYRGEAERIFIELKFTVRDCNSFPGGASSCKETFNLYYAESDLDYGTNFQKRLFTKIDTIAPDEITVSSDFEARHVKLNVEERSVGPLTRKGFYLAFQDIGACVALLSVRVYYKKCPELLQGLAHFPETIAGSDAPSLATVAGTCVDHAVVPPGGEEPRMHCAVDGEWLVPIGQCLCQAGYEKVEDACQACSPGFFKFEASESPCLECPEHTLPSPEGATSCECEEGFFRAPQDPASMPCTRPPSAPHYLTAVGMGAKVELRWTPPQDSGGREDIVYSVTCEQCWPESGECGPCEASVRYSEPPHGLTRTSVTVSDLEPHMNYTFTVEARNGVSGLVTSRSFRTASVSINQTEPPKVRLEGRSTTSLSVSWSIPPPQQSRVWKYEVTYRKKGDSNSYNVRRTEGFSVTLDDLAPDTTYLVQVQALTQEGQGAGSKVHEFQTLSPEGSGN

**Q.** For CC[C@H](C)[C@@H]([C@@H](CC(=O)N1CCC[C@H]1[C@H](OC)[C@@H](C)C(=O)N[C@H](C)[C@@H](O)c1ccccc1)OC)N(C)C(=O)[C@@H](NC(=O)[C@H](C(C)C)N(C)C(=O)OCc1ccc(NC(=O)[C@H](CCCNC(N)=O)NC(=O)[C@@H](NC(=O)CCCC(=O)NCCC(=O)N(C)CC(=O)N(C)CC(=O)N(C)CC(=O)N(C)CC(=O)N(C)CC(=O)N(C)CC(=O)N(C)CC(=O)N(C)CC(=O)N(C)CC(=O)N(C)CC(=O)N[C@@H](C)C(=O)N[C@@H](CCCCNC(=N)N)C(=O)N[C@@H](CC(=O)O)C(=O)N[C@H]2CCSCCC(=O)N3CN4CN(C3)C(=O)CCSC[C@H](NC(=O)[C@H](CC(C)C)NC(=O)[C@@H]3CCCN3C(=O)[C@H](CC(N)=O)NC(=O)[C@H](C(C)C)NC(=O)[C@H](CC(C)C)NC(=O)[C@@H]3C[C@@H](O)CN3C2=O)C(=O)N[C@@H](CC(C)C)C(=O)N[C@@H](Cc2c[nH]cn2)C(=O)N2CCC[C@H]2C(=O)N[C@H](CC(=O)O)C(=O)N[C@@H](Cc2c[nH]c3ccccc23)C(=O)N[C@@H](CCCCNC(=N)N)C(=O)N[C@H](C(N)=O)CSCCC4=O)C(C)C)cc1)C(C)C [Acetate salt of PDC_2, MMAE-PABC-Cit-Val-Glutaryl-β-Ala-Sar10-Ala-hArg-Asp-hCys-Hyp-Leu-Val-Asn-Pro-Leu-Cys-Leu-His-Pro-dAsp-Trp-hArg-Cys-NH2, TATA] (I: [Sar][Sar][Sar][Sar][Sar][Sar][Sar][Sar][Sar][Sar]A[hArg]D[hCys][Hyp]LVNPLCLHP[dD]W[hArg]C-NH2 / II: V[Cit][PABC][NMeV]V[Dil][Dolaproine]-X1; linker I:14-I:21-I:28 via TATA; linker I:N-II:N via X2), which Kd (Human EphA2; read-out: Human EphA2 SPR kD, SPR, kinetics fit 1:1 model) is on record?
**A.** The Kd was 33 nM.

**Q.** For CC[C@H](C)[C@@H]([C@@H](CC(=O)N1CCC[C@H]1[C@H](OC)[C@@H](C)C(=O)N[C@H](C)[C@@H](O)c1ccccc1)OC)N(C)C(=O)[C@@H](NC(=O)[C@H](C(C)C)N(C)C(=O)OCc1ccc(NC(=O)[C@H](CCCNC(N)=O)NC(=O)[C@@H](NC(=O)CCCC(=O)NCCC(=O)N(C)CC(=O)N(C)CC(=O)N(C)CC(=O)N(C)CC(=O)N(C)CC(=O)N(C)CC(=O)N(C)CC(=O)N(C)CC(=O)N(C)CC(=O)N(C)CC(=O)N[C@H]2CCCCNC(=O)C[C@@H](C(=O)N[C@H]3CSCCC(=O)N4CN5CN(C4)C(=O)CCSC[C@H](NC(=O)[C@H](CC(C)C)NC(=O)[C@@H]4CCCN4C(=O)[C@H](CC(N)=O)NC(=O)[C@H](C(C)C)NC(=O)[C@H](CC(C)C)NC(=O)[C@@H]4C[C@@H](O)CN4C3=O)C(=O)N[C@@H](CC(C)C)C(=O)N[C@@H](Cc3c[nH]cn3)C(=O)N3CCC[C@H]3C(=O)N[C@H](CC(=O)O)C(=O)N[C@@H](Cc3c[nH]c4ccccc34)C(=O)N[C@@H](CCCCNC(=N)N)C(=O)N[C@H](C(N)=O)CSCCC5=O)NC(=O)[C@H](CCCCNC(=N)N)NC2=O)C(C)C)cc1)C(C)C [Acetate salt of PDC_4] (I: [Sar][Sar][Sar][Sar][Sar][Sar][Sar][Sar][Sar][Sar]K[hArg]DC[Hyp]LVNPLCLHP[dD]W[hArg]C-NH2 / II: V[Cit][PABC][NMeV]V[Dil][Dolaproine]-X1; lactam I:11-I:13; linker I:14-I:21-I:28 via TATA; linker I:N-II:N via X2), which Kd (Human EphA2) is on record?
**A.** Its Kd is 13.3 nM.

**Q.** For CC[C@H](C)[C@@H]([C@@H](CC(=O)N1CCC[C@H]1[C@H](OC)[C@@H](C)C(=O)N[C@H](C)[C@@H](O)c1ccccc1)OC)N(C)C(=O)[C@@H](NC(=O)[C@H](C(C)C)N(C)C(=O)OCc1ccc(NC(=O)[C@H](CCCNC(N)=O)NC(=O)[C@@H](NC(=O)CCCC(=O)NCCC(=O)N(C)CC(=O)N(C)CC(=O)N(C)CC(=O)N(C)CC(=O)N(C)CC(=O)N(C)CC(=O)N(C)CC(=O)N(C)CC(=O)N(C)CC(=O)N(C)CC(=O)N[C@H]2CCCCNC(=O)C[C@@H](C(=O)N[C@H]3CSCCC(=O)N4CN5CN(C4)C(=O)CCSC[C@H](NC(=O)[C@H](CC(C)C)NC(=O)[C@@H]4CCCN4C(=O)[C@H](CC(N)=O)NC(=O)[C@H](C(C)C)NC(=O)[C@H](CC(C)C)NC(=O)[C@@H]4C[C@@H](O)CN4C3=O)C(=O)N[C@@H](CC(C)C)C(=O)N[C@@H](Cc3c[nH]cn3)C(=O)N3CCC[C@H]3C(=O)N[C@H](CC(=O)O)C(=O)N[C@@H](Cc3c[nH]c4ccccc34)C(=O)N[C@@H](CCCCNC(=N)N)C(=O)N[C@H](C(N)=O)CCSCCC5=O)NC(=O)[C@H](CCCCNC(=N)N)NC2=O)C(C)C)cc1)C(C)C [Acetate salt of PDC_5] (I: [Sar][Sar][Sar][Sar][Sar][Sar][Sar][Sar][Sar][Sar]K[hArg]DC[Hyp]LVNPLCLHP[dD]W[hArg][hCys]-NH2 / II: V[Cit][PABC][NMeV]V[Dil][Dolaproine]-X1; lactam I:11-I:13; linker I:14-I:21-I:28 via TATA; linker I:N-II:N via X2), which Kd (Human EphA2) is on record?
**A.** The Kd was 6.73 nM.

**Q.** Which results are given for CC[C@H](C)[C@@H]([C@@H](CC(=O)N1CCC[C@H]1[C@H](OC)[C@@H](C)C(=O)N[C@H](C)[C@@H](O)c1ccccc1)OC)N(C)C(=O)[C@@H](NC(=O)[C@@H](NC)C(C)C)C(C)C [MMAE, monomethyl auristatin E] (H-[NMeV]V[Dil][Dolaproine]-X1)?
**A.** AUC0-last [1]: 0.0515 µM·h; Cmax [1]: 55 nM; AUC0-last [2]: 0.0374 µM·h; Cmax [2]: 23.5 nM; AUC0-last [3, 5]: 0.058 µM·h; Cmax [3, 5]: 29 nM; AUC0-last [3, 6]: 0.185 µM·h; Cmax [3, 6]: 39 nM; AUC0-last [3, 7]: 0.435 µM·h; Cmax [3, 7]: 52 nM; AUC0-last [4]: 0.0288 µM·h; Cmax [4]: 5.6 nM
